From US8940748B2, “Iminothiadiazine dioxide compounds as BACE inhibitors, compositions, and their use” (Merck Sharp & Dohme Corp., priority 2009, dated 2015)
Read-outs that look alike come from different tables or passages of the source. One block for each compound: values may come before it.

What was measured:
Caco-2 cell line = assay: Caco-2 bi-directional permeability; assay type: in vitro ADME; settings: permeability apical to basolateral
Method: (§1) The bi-directional permeability with efflux potential of selected compounds of the invention vs. otherwise structurally identical iminopyrimidinones (collectively referred to as test compounds, shown in the table below) were assessed using Caco-2 cell line. The Caco-2 cells were maintained in DMEM (Dulbecco's Modified Eagle Medium) containing 10% fetal bovine serum, 1% non-essential amino acids, 2 mM L-glutamine, and 1% penicillin-streptomycin in an incubator at ˜37° C. in an atmosphere of 5% CO2 and about 90% relative humidity. The cell culture medium was changed three times weekly. Caco-2 cell monolayers were grown on polyethylene terephthalate filters using 24-well BD Falcon™ Cell Culture Insert Plates (0.33 cm^2 insert area, 1 μm pore size; BD BioSciences, Bedford, Mass.). The culture medium of the plate was changed every other day until used for the transport experiment (21-28 days post seeding).
(§2) The transport buffer (TM) was Hank's balanced salt solution (HBSS) with 10 mM HEPES and 25 mM glucose (pH 7.4) for dosing and TM with 4% bovine serum albumin for receiver (pH 7.4). The bi-directional permeability of the test compounds were tested at concentrations of 1, 10 and 100 μM was measured in triplicate with 2-hr incubation. The cell monolayer integrity was monitored with pre- and post-experimental trans-epithelial electrical resistance and post-experimental Lucifer Yellow (LY) permeability with 1 hr incubation.
(§3) The apparent permeability, recovery and efflux ratio values were calculated using the following equations:
(§4) where, • dCR/dt: The slope of the accumulative concentration in the receiver compartment versus time incubation (μM·s^−1) • C0hr: Donor concentration (μM) immediately after dosing • CD, final: Donor concentration (μM) at the end of incubation • S: Membrane surface area (cm^2) • VD: Volume of donor compartment (mL) • VR: Volume of receiver compartment (mL) • Papp-BLtoAP: Permeability from basolateral (BL) to apical (AP) transport

[1] = test system: endogenous rat Aβ1-40 (Aβ40) in cortex; assay: Cortical Aβ40 in rats after oral dosing (Luminex-based immunodetection); assay type: in vivo; settings: read-out: Change in rat cortex Aβ40
Method: The following procedures were used.
Male CD rats (˜100 g; Crl:CD(SD); Charles River Laboratories, Kingston, N.Y.) were group housed and acclimated to the vivarium for 5-7 days prior to use in a study. Compounds were formulated in 20% hydroxypropyl-β-cyclodextrin and administered orally with a dosing volume of 5 ml/kg for rats. Three h after drug administration, rats were euthanized with excess CO2. The brain was removed from the skull and immediately frozen on dry ice. All tissues were stored at −70° C. until Aβ quantification.
Ab585 was labeled with biotin (b-Ab585) by first dialyzing the antibody sample extensively versus PBS (pH 7.8) to remove impurities, followed by dilution to between 1 and 2 mg/mL protein concentration. EZ-Link Sulfo-NHS-LC-Biotin (Pierce) was dissolved in PBS (pH 7.8) at a concentration of 1 mg/mL immediately prior to use. Ab585 was labeled with EZ-Link Sulfo-NHS-LC-biotin using a 10:1 biotin:antibody ratio by incubation at room temperature for 1 hour. The labeling reaction was quenched by addition of 1.0 M glycine to a final concentration of 0.1 M followed by 10 minute incubation at room temperature. Glycine was removed by extensive dialysis versus PBS.
The antibody was coupled to the beads using the Bio-Plex Amine Coupling Kit (Bio-Rad) as per the manufacturer's recommendations.
Rat cortex Aβ40 levels were measured from guanidine HCl extracts of individual rat cortices using a Luminex-based immunodetection assay. Rat brains were thawed briefly at 37° C. and both mid- and hindbrain regions were removed. The remaining material, consisting primarily of cortex (˜800 mg) was carried through the guanidine extraction procedure. Cortices were added to a 2 ml BioPur tube (Eppendorf) along with a 6.35 mm chrome-coated steel ball and 1.0 ml of sucrose homogenization buffer (20 mM HEPES [pH 7.5], 50 mM KCl, 50 mM sucrose, 2 mM EDTA, 2 mM EGTA supplemented with complete protease inhibitors [Roche, EDTA-free]). Samples were then homogenized by agitation for 1.5 min at 30 cycles/sec in a MM300 tissue mixer (Retsch®). The resulting cortical homogenate was extracted with guanidine-HCl by mixing 67 μl of homogenate with 133 μl of 5 M Guanidine HCl, 50 mM Tris HCl (pH 8.0). To maximize the efficiency of Aβ extraction, samples were vortexed and then sonicated for 2 minutes in an ice bath using an Ultrasonics XL cup horn sonicator at a power setting of 8 (Heat Systems, Inc.). Insoluble material was removed by ultracentrifugation using a using a TLA-55 rotor in a TL-100 benchtop centrifuge (Beckman) at 100,000×g for 30 minutes. The resulting supernatant was then either diluted 1:10 in 5 M guanidine HCl, 0.05 M Tris HCl (pH 8.0) for protein analysis (BCA protein assay, Pierce Biochemicals) or assayed neat for Aβ40 levels. The Luminex rodent Aβ40 assay was performed as follows. First, 96 well filter binding plates (Millipore, catalogue # MSBVN12) were wetted with 100 μl of 1×LAβ40 buffer (0.05 M HEPES [pH 7.5], 0.2% BSA, 0.2% Tween-20, 0.15 M NaCl) by vacuum filtration on a Millipore 96-well manifold. The plate bottom was sealed and 100 μl of 1×LAβ40 buffer was added to each well followed by addition of 50 μl each of G2-10:COOH beads (1000 beads/well) and 50 μl b-Ab585 at 0.5 μg/ml in 1×LAβ40 buffer. Guanidine HCl was added to synthetic rodent Aβ40 standards in order to control for the effect of guanidine in brain extracts on the assay performance. Ten microliters of cortical extract, rodent Aβ40 standards or cortical extract from amyloid precursor protein knockout mice (to define background immunoreactivity) was added to each well. Plates were covered and incubated overnight at 4° C. Following the incubation, wells were cleared by vacuum and washed twice with 100 μl of 1×LAβ40 buffer on a Millipore manifold.

[2] = Caco-2 bi-directional permeability; assay type: in vitro ADME; settings: human, Caco-2; permeability apical to basolateral; read-out: Caco-2 AP→BL
Method: as §1, §2, §3, §4

P-gp = assay: Caco-2 bi-directional permeability; assay type: in vitro ADME; settings: human, Caco-2
Method: as §1, §2, §3, §4

[3] = biological target: soluble human BACE1 catalytic domain (Homo sapiens (Human), UniProt P56817); assay: BACE1 HTRF FRET assay; assay type: biochemical; settings: Ki calculated from IC50 using the Cheng-Prusoff equation; read-out: BACE-1 Ki
soluble human BACE1 catalytic domain, sequence (P56817 75-416): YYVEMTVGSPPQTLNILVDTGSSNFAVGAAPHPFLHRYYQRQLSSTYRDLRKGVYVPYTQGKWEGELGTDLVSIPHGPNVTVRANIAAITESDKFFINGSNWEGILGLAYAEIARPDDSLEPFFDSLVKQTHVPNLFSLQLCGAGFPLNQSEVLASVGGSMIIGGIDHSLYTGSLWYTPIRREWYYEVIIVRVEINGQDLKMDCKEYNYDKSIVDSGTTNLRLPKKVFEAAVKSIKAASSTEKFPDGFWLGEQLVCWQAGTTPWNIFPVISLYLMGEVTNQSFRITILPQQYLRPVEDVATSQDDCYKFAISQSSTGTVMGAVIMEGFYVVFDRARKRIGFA

[4] = biological target: purified human autoBACE-2 (Homo sapiens (Human), UniProt Q9Y5Z0); assay: BACE-2 assay (BACE-HTRF, time-resolved endpoint proteolysis); assay type: biochemical; settings: Ki calculated from IC50 using the Cheng-Prusoff equation
purified human autoBACE-2, sequence (Q9Y5Z0 63-473 limits assumed): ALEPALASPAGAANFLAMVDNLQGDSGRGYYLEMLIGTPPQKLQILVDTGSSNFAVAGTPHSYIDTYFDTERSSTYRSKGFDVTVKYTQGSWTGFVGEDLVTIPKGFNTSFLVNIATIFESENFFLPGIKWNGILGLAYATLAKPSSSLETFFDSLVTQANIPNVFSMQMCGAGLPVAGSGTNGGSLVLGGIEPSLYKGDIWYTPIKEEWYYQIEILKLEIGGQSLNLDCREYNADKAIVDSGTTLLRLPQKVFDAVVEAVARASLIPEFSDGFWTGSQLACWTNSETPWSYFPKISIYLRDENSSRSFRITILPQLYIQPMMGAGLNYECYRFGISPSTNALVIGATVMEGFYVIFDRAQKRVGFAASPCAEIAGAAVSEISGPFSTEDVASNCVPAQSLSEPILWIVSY
Method: Inhibitor IC50s at purified human autoBACE-2 were determined in a time-resolved endpoint proteolysis assay that measures hydrolysis of the QSY7-[sequence]-Eu-amide FRET peptide substrate (BACE-HTRF assay). […] DMSO was present at 5% final concentration in the assay. Following laser excitation of sample wells at 320 nm, the fluorescence signal at 620 nm was collected for 400 ms following a 50 μs delay on a RUBYstar HTRF plate reader (BMG Labtechnologies). Raw RFU data was normalized to maximum (1.0 nM BACE/DMSO) and minimum (no enzyme/DMSO) RFU values. […] The Ki values were calculated from the IC50 using the Cheng-Prusoff equation.

[5] = Solution stability, Example A (pH 7.4 phosphate buffer/MeOH, LC/MS); assay type: physicochemical; settings: for degredation: aqueous pH 7.4 buffer containing methanol
Method: A 1.05 mg/mL stock solution (5 mL) of Ex. 45 in MeOH was prepared. From the stock solution was taken out 1.25 mL and diluted to 25 mL with the addition of 23.75 mL of 10 mM phosphate buffer (pH 7.4)/MeOH (70/30 v/v). This new solution was split into three. One solution was incubated at 4° C., another incubated at 25° C. and the third incubated at 40° C. Each solution was analyzed by LC/MS after day 1, day 2 and day 6 and compared to a standard calibration curve for Ex. 45.
In the following study, the solution stability of the compound of Example 45 was measured and compared to that of Compound Z. The compound of Example 45 is an iminothiadiazine dioxide compound of the invention. Compound Z is the corresponding iminopyrimidinone compound. The structures of the compound of Example 45 and of Compound Z are shown below. Studies were performed in aqueous pH 7.4 buffer containing methanol at 4° C., 25° C. and 40° C.

[6] = Solution stability, Example B (50 mM pH 7.4 phosphate buffer, 25° C., LC/MS); assay type: physicochemical
Method: Stock solutions of the tested compounds were prepared by dissolving about 3 mg of each compound in 3 mL of acetonitrile. Standards for test compounds were prepared by diluting 1 mL of the stock solution with an additional 4 mL of acetonitrile. These standards were stored at 4° C. Samples were prepared by diluting 1 mL of the stock solution with 4 mL of 50 mM pH 7.4 phosphate buffer. These samples were stored at 25° C. in the absence of light. Standards and samples were analyzed by LC/MS initially and at day 1, day 4, and day 6.
Mobile phase A: 10 mM pH 5 ammonium acetate buffer:methanol (90:10)
Mobile phase B: 10 mM pH 5 ammonium acetate buffer:methanol (10:90)
Column: Zorbax SB-Phenyl 4.6×50 mm, 1.8 μm
Column temperature: 40° C.
Area % is the integration of peak from HPLC as reported by Waters Empower II software.
In the following study, the solution stability of the compound of Example 47 was measured and compared to that of Compound Y. The compound of Example 47 is an iminothiadiazine dioxide compound of the invention. Compound Y is the corresponding iminopyrimidinone compound. The structures of the compound of Example 47 and of Compound Y are shown below. Studies were performed in pH 7.4 buffer at 25° C.

[7] = rats, 3 h after a 10 mg/kg oral dose, vs vehicle cohort
[8] = pH 7.4, 40° C., last column without time heading
[9] = Standard (in acetonitrile, stored at 4° C.)

Papp A→B at 2 h [2]: 13.6 ×10⁻⁶ cm/s
efflux ratio at 2 h (P-gp): 2.6
SMILES: CN1C(=N)N[C@](C)(c2cc(-c3ccc(F)c(C#N)c3)cs2)CC1=O [Iminopyrimidinone 46]

efflux ratio at 2 h (P-gp): 1.8
Ki [3]: 1.64 nM
Ki [4]: 1.99 nM
SMILES: COc1cnc(C(=O)Nc2ccc(F)c([C@]3(C)CS(=O)(=O)N(C)C(=N)N3)c2)cn1 [Example 40ai]
change in vivo at 10 mg/kg [1, 7]: -51%

efflux ratio at 2 h (P-gp): 3.3
Ki [3]: 10 nM
Ki [4]: 4.85 nM
SMILES: Cc1cnc(C(=O)Nc2ccc(F)c([C@]3(C)CS(=O)(=O)N(C)C(=N)N3)c2)cn1 [Example 36]
change in vivo at 10 mg/kg [1, 7]: -25%

degredation ([5]; 4° C., after 6 days): 0.93%
degredation ([5]; 25° C., after 6 days): 7.4%
degredation ([5]; 40° C., after 6 days): 30.71%
Assay (Area %) ([5]; pH 7.4, 4° C., 1 day): 99.69 Area %
Assay (Area %) ([5]; pH 7.4, 4° C., 2 days): 99.04 Area %
Assay (Area %) ([5]; pH 7.4, 4° C., 6 days): 98.89 Area %
Assay (Area %) ([5]; pH 7.4, 4° C., Initial): 99.82 Area %
Assay (Area %) ([5]; pH 7.4, 25° C., 1 day): 98.45 Area %
Assay (Area %) ([5]; pH 7.4, 25° C., 2 days): 96.07 Area %
Assay (Area %) ([5]; pH 7.4, 25° C., 6 days): 92.43 Area %
Assay (Area %) ([5]; pH 7.4, 25° C., Initial): 99.82 Area %
Assay (Area %) ([5]; pH 7.4, 40° C., 1 day): 96.32 Area %
Assay (Area %) ([5]; pH 7.4, 40° C., 2 days): 89.70 Area %
Assay (Area %) ([5]; pH 7.4, 40° C., 6 days): 69.11 Area %
Assay (Area %) ([5]; pH 7.4, 40° C., Initial): 99.82 Area %
Assay (Area %), degradation symbol [5, 8]: — ((—) stands for > 20% degradation)
efflux ratio at 2 h (P-gp): 1.4
Ki [3]: 25.6 nM
SMILES: CN1C(=N)N[C@](C)(c2cc(-c3cccc(C#N)c3)cs2)CS1(=O)=O [Example 45]

efflux ratio at 2 h (P-gp): 2.1
Ki [3]: 3 nM
Ki [4]: 0.45 nM
SMILES: Cc1ccc(C(=O)Nc2ccc(F)c([C@]3(C)CS(=O)(=O)N(C)C(=N)N3)c2)nc1 [Example 35]

Ki [3]: 46 nM
Ki [4]: 8.23 nM
SMILES: CN1C(=N)N[C@](C)(c2cc(-c3ccc(F)c(C#N)c3)cs2)CS1(=O)=O [Example 46]

Papp A→B at 2 h [2]: 15.3 ×10⁻⁶ cm/s
SMILES: CC#Cc1cncc(-c2cc(Cl)c([C@]3(C)CC(=O)N(C)C(=N)N3)s2)c1 [Iminopyrimidinone 52, reference compound]

degredation ([5]; 4° C., after 1 day): 18.3%
degredation ([5]; 25° C., time not stated): 53.87%
degredation ([5]; 40° C., after 1 day): 79.93%
Assay (Area %) ([5]; pH 7.4, 4° C., 1 day): 69.84 Area %
Assay (Area %), degradation symbol ([5]; pH 7.4, 4° C., 2 days): — ((—) stands for > 20% degradation)
Assay (Area %), degradation symbol ([5]; pH 7.4, 4° C., 6 days): — ((—) stands for > 20% degradation)
Assay (Area %) ([5]; pH 7.4, 4° C., Initial): 88.15 Area %
Assay (Area %), degradation symbol ([5]; pH 7.4, 4° C., last column without time heading): — ((—) stands for > 20% degradation)
Assay (Area %) ([5]; pH 7.4, 25° C., 1 day): 34.28 Area %
Assay (Area %), degradation symbol ([5]; pH 7.4, 25° C., 2 days): — ((—) stands for > 20% degradation)
Assay (Area %), degradation symbol ([5]; pH 7.4, 25° C., 6 days): — ((—) stands for > 20% degradation)
Assay (Area %) ([5]; pH 7.4, 25° C., Initial): 88.15 Area %
Assay (Area %), degradation symbol ([5]; pH 7.4, 25° C., last column without time heading): — ((—) stands for > 20% degradation)
Assay (Area %) ([5]; pH 7.4, 40° C., 1 day): 8.22 Area %
Assay (Area %), degradation symbol ([5]; pH 7.4, 40° C., 2 days): — ((—) stands for > 20% degradation)
Assay (Area %), degradation symbol ([5]; pH 7.4, 40° C., 6 days): — ((—) stands for > 20% degradation)
Assay (Area %) ([5]; pH 7.4, 40° C., Initial): 88.15 Area %
Assay (Area %), degradation symbol [5, 8]: — ((—) stands for > 20% degradation)
SMILES: CN1C(=N)N[C@](C)(c2cc(-c3cccc(C#N)c3)cs2)CC1=O [Compound Z]

Papp A→B at 2 h [2]: 17.4 ×10⁻⁶ cm/s
efflux ratio at 2 h (P-gp): 2.6
SMILES: CN1C(=N)N[C@](C)(c2cc(-c3cccc(C#N)c3)cs2)CC1=O [Iminopyrimidinone 45]
change in vivo at 10 mg/kg [1, 7]: -5%

Ki [3]: ~6.5 nM
Ki [4]: ~1 nM
Area %, Day 1 (Unknown peak, RRT 1.49) ([6]; Sample at pH 7.4, 25° C.): 1.44 Area %
Area %, Day 1 (parent peak, RRT 1.00) ([6]; Sample at pH 7.4, 25° C.): 98.56 Area %
Area %, Day 4 (Unknown peak, RRT 1.49) ([6]; Sample at pH 7.4, 25° C.): 1.47 Area %
Area %, Day 4 (parent peak, RRT 1.00) ([6]; Sample at pH 7.4, 25° C.): 98.53 Area %
Area %, Day 6 (Unknown peak, RRT 1.49) ([6]; Sample at pH 7.4, 25° C.): 1.47 Area %
Area %, Day 6 (parent peak, RRT 1.00) ([6]; Sample at pH 7.4, 25° C.): 98.53 Area %
Area %, Initial (Unknown peak, RRT 1.49) ([6]; Sample at pH 7.4, 25° C.): 1.45 Area %
Area %, Initial (parent peak, RRT 1.00) ([6]; Sample at pH 7.4, 25° C.): 98.55 Area %
Area %, Day 1 (Unknown peak, RRT 1.49) [6, 9]: 1.45 Area %
Area %, Day 1 (parent peak, RRT 1.00) [6, 9]: 98.55 Area %
Area %, Day 4 (Unknown peak, RRT 1.49) [6, 9]: 1.48 Area %
Area %, Day 4 (parent peak, RRT 1.00) [6, 9]: 98.52 Area %
Area %, Day 6 (Unknown peak, RRT 1.49) [6, 9]: 1.48 Area %
Area %, Day 6 (parent peak, RRT 1.00) [6, 9]: 98.52 Area %
Area %, Initial (Unknown peak, RRT 1.49) [6, 9]: 1.47 Area %
Area %, Initial (parent peak, RRT 1.00) [6, 9]: 98.53 Area %
hydrolysis product ([6]; pH 7.4 buffer at 25° C., after 6 days): 0%
SMILES: CC#Cc1cncc(-c2csc([C@]3(C)CS(=O)(=O)N(C)C(=N)N3)c2)c1 [Example 47]

efflux ratio at 2 h (P-gp): 2
Ki [3]: 1.05 nM
Ki [4]: 2.15 nM
SMILES: COc1cnc(C(=O)Nc2cc(F)c(F)c([C@]3(C)CS(=O)(=O)N(C)C(=N)N3)c2)cn1 [Example 40di]
change in vivo at 10 mg/kg [1, 7]: -38%

Further lines, the compound ahead of its results:

SMILES: Cc1ccc(C(=O)Nc2ccc(F)c([C@]3(C)CC(=O)N(C)C(=N)N3)c2)nc1 [Iminopyrimidinone 35]
Caco-2 AP→BL (Caco-2 cell line): 0 nm/s

SMILES: CN1C(=N)N[C@](C)(c2cc(NC(=O)c3ccc(F)cn3)ccc2F)CS1(=O)=O [Example 25]
change in vivo at 10 mg/kg [1, 7]: -49%

SMILES: CN1C(=N)N[C@](C)(c2cc(NC(=O)c3ccc(Cl)cn3)ccc2F)CC1=O [Iminopyrimidinone 34, reference compound]
Caco-2 AP→BL (Caco-2 cell line): 0 nm/s
change in vivo at 10 mg/kg ([1]; po, 3 h): -19%

SMILES: CN1C(=N)N[C@](C)(c2cc(NC(=O)c3ccc(F)cn3)ccc2F)CC1=O [Iminopyrimidinone 25]
Papp A→B at 2 h [2]: 2.2 ×10⁻⁶ cm/s
efflux ratio at 2 h (P-gp): 10.6
change in vivo at 10 mg/kg [1, 7]: -11%

SMILES: CN1C(=N)N[C@](C)(c2c(F)ccc(NC(=O)c3ccc(F)cn3)c2F)CS1(=O)=O [Example 173]
Papp A→B at 2 h [2]: 12.6 ×10⁻⁶ cm/s
change in vivo at 10 mg/kg [1, 7]: -27%

SMILES: CN1C(=N)N[C@](C)(c2cc(NC(=O)c3ccc(Cl)cn3)ccc2F)CS1(=O)=O [Example 34]
efflux ratio at 2 h (P-gp): 3.1
Ki [3]: 0.949 nM
Ki [4]: 0.22 nM
change in vivo at 10 mg/kg [1, 7]: -51%

SMILES: CN1C(=N)N[C@](C)(c2cc(NC(=O)c3ccc(C(F)(F)F)cn3)ccc2F)CS1(=O)=O [Example 26]
efflux ratio at 2 h (P-gp): 2.9
Ki [3]: 1.26 nM
Ki [4]: 2.46 nM
change in vivo at 10 mg/kg [1, 7]: -33%

SMILES: Cc1cnc(C(=O)Nc2ccc(F)c([C@]3(C)CC(=O)N(C)C(=N)N3)c2)cn1 [Iminopyrimidinone 36]
Papp A→B at 2 h [2]: 1.1 ×10⁻⁶ cm/s
efflux ratio at 2 h (P-gp): 12.9

SMILES: CN1C(=N)N[C@](C)(c2cc(NC(=O)c3ccc(C(F)(F)F)cn3)ccc2F)CC1=O [Iminopyrimidinone 26]
Papp A→B at 2 h [2]: 1.7 ×10⁻⁶ cm/s
efflux ratio at 2 h (P-gp): 11.3
change in vivo at 10 mg/kg [1, 7]: 0%

SMILES: COc1cnc(C(=O)Nc2cc(F)c(F)c([C@]3(C)CC(=O)N(C)C(=N)N3)c2)cn1 [Iminopyrimidinone 40di]
Papp A→B at 2 h [2]: 6.5 ×10⁻⁶ cm/s
efflux ratio at 2 h (P-gp): 3.2
change in vivo at 10 mg/kg [1, 7]: 5%

SMILES: CN1C(=N)N[C@](C)(c2c(F)ccc(NC(=O)c3ccc(F)cn3)c2F)CC1=O [Iminopyrimidinone 173]
Papp A→B at 2 h [2]: 2.5 ×10⁻⁶ cm/s
efflux ratio at 2 h (P-gp): 6.1
change in vivo at 10 mg/kg [1, 7]: -3%
